Our source for the IC50 and IC90 values is PubChem BioAssay AID449764 (Southern Research Specialized Biocontainment Screening …, 2010).

In the assay the test system is Mycobacterium tuberculosis H37Rv growth inhibition, no glycerol. Briefly: Confirmatory growth inhibition assay, Mycobacterium tuberculosis H37Rv, absence of glycerol (AID 449764).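 On all read-outs here: growth read after 7 days of incubation.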 Particulars: for IC90: measured here: IC90 growth inhibition.

In the case of `CCCCC(CC)CN=C(N)NC(N)=NCCCCCCN=C(N)NC(N)=NCC(CC)CCCC` (stereo not drawn), the IC50 (in general, the midpoint of a concentration-inhibition curve) was 5.37 µM and the IC90 (in general, the concentration needed for an effect of 90%) is 5.97 µM.

Consider `Cc1ccc(C)c(NNC(N)=S)c1`, for which the concentration for half-maximal inhibition (IC50) is 16 µM and the 90% effect concentration (IC90) turned out to be 29.2 µM.

As for `COCCCNC(=O)/C(C#N)=C/c1c(N2CCN(c3cccc(Cl)c3)CC2)nc2c(C)cccn2c1=O`, the IC50 is 38.5 µM and the IC90 was more than 100 µM.

On to `CCOC(=O)c1cc2cc3ccccc3cc2oc1=O`, for which the IC50 is 84.8 µM and the IC90 is more than 100 µM.

With `O=c1cc(-c2ccccc2Cl)oc2ccc([N+](=O)[O-])c(O)c12`, the IC50 was 21.4 µM and the concentration for an effect of 90% (IC90) is 28.2 µM.

For `COc1ccc(N=c2ssnc2Cl)cc1`, the IC50 is 90.6 µM and the IC90 was more than 100 µM.

For `CCOC(=O)Cc1csc(NC(=O)c2c(O)c3c(n(CC(C)C)c2=O)CCCC3)n1`, the 50% inhibitory concentration (IC50) was 18.5 µM and the IC90 stood at 36.7 µM.

`c1ccc(CN2CCC3(CCCc4ccccc43)CC2)cc1`: the IC50 was 12.2 µM and the IC90 amounted to 15.8 µM.

As for `Cc1cc(NC(=O)c2cc(-c3ccncc3)nc3c(C)cccc23)no1`, the half-maximal inhibitory concentration (IC50) is 93.1 µM and the IC90 was more than 100 µM.

Consider `COc1ccc(Cc2nnc(SCC(=O)N(c3ccccc3)C(C)C)n(N)c2=O)cc1`, for which the IC50 is 68 µM and the IC90 is 97.5 µM.

`C#C[C@]1(O)CC[C@H]2[C@@H]3CCc4cc(OC5CCCC5)ccc4[C@H]3CC[C@@]21C`: the IC50 was 36.6 µM and the concentration for an effect of 90% (IC90) came out at 54.7 µM.

With `CNc1ccc2oc(C[C@H]3O[C@@]4(CC[C@H]3C)O[C@H]([C@H](C)C(=O)c3ccc[nH]3)[C@H](C)C[C@H]4C)nc2c1C(=O)O`, the IC50 was 2.82 µM and the 90% effect concentration (IC90) worked out at 3.18 µM.

Take `COc1ccc(C(C)=O)cc1COC(=O)c1ccc2ccccc2n1`: the IC50 is 60.3 µM and the IC90 is more than 100 µM.

For the compound `C/C(=N\NC(N)=S)c1ccc(Cl)s1`, the IC50 is 11.8 µM and the IC90 was 23.4 µM.

As to `C=CCn1cccc(/C=C/C(=O)c2ccc(C(C)(C)C)cc2)c1=S`, the IC50 is 68 µM and the IC90 stood at 86.8 µM.

As to `CC1CCN(C(=O)C2CCN(c3nnc(-n4cccc4)s3)CC2)CC1`, the IC50 was 3.51 µM and the concentration for an effect of 90% (IC90) came out at 6.13 µM.

For `Nc1cc([N+](=O)[O-])ccc1Nc1ccc(O)cc1`, the IC50 was 30.6 µM and the IC90 is 36.6 µM.

`CCc1nnc(N/N=C/c2cc(C)c(C)cc2C)n1N`: the IC50 was 5.95 µM and the IC90 turned out to be 6.55 µM.

For `CCOC(=O)CSc1nc(C)c(C(=O)OCC)s1`, the IC50 was 9.22 µM and the IC90 amounted to 16.2 µM.

Consider `CC(/C=N/NC(=O)c1cc(-c2ccc3ccccc3c2)n[nH]1)=C\c1ccco1`, for which the IC50 was 43.8 µM and the IC90 came to 66.8 µM.

On to `CC1CCc2c(sc3ncnc(NCCCOC(C)C)c23)C1` (stereo not drawn), for which the IC50 is 59.3 µM and the IC90 amounted to 74.2 µM.

Consider `CC(C)(C)OC(=O)NNc1c2ccccc2nc2ccccc12`, for which the IC50 was 22.6 µM and the IC90 was determined as 25.2 µM.

For `CCC(=O)Nc1nc2ccccc2n1Cc1ccc(Cl)cc1`, the IC50 is less than 0.2 µM and the concentration for an effect of 90% (IC90) worked out at 4.27 µM.

For the compound `CC1CCc2c(C(=O)Nc3nccs3)csc2C1` (stereo not drawn), the IC50 was 41.9 µM and the IC90 turned out to be 80.3 µM.

With `COCCN(C(=O)C1CC(=O)N(Cc2ccccc2)C1)c1nc(-c2ccc([N+](=O)[O-])cc2)cs1` (stereo not drawn), the IC50 is 28.3 µM and the concentration for an effect of 90% (IC90) was more than 100 µM.

Turning to `O=C(c1cc(COc2ccc(F)cc2F)on1)N1CCCC(c2ccccc2)C1` (stereo not drawn), the IC50 is 53.8 µM and the 90% effect concentration (IC90) is more than 100 µM.

As to `Cc1c(Cl)cccc1NC(=O)CN1CCC(C(O)(c2ccccc2)c2ccccc2)CC1`, the IC50 is 45.1 µM and the IC90 was more than 100 µM.

On to `O=C(CCl)NCc1cc(-c2ccc(Cl)cc2)no1`, for which the IC50 was 0.35 µM and the 90% effect concentration (IC90) was more than 100 µM.

For the compound `Cc1ccc(S(=O)(=O)Nc2cccc3ncccc23)s1`, the IC50 is 3.38 µM and the IC90 turned out to be 6.54 µM.
